These results are taken from patent US20090036492A1, “Novel Cercosporamide Derivative” (priority 2005, published 2009).

The first experiment concerns male KK mice. Briefly: Blood glucose lowering effect in diabetic KK mice. Format: in vivo. As to conditions: 15 to 20 weeks old, feed containing 0.03% of the compound, three days, blood glucose on the 3rd day vs control group. The text has this: Six-week-old male KK mice were purchased from CLEA Japan, Inc. and then were fed until 15 to 20 weeks old and affected with diabetes. The mice were individually fed during the adaptation period and the test period, and water and feed (FR2, Funabashi Farm) were freely ingested.
At the start of the experiment, after body weight measurement, blood was collected from the tail vein of the mice into a heparin-coated glass tube and centrifuged, and then plasma was separated. The glucose level in the plasma was measured by Glucoloader GXT (A&T Corp.), and individuals having a blood glucose level of about 350 mg/dl or more were selected. Groups each having 3 to 4 mice were used for the experiment, and the mice were grouped to make the average body weight and the average blood glucose level similar. Each compound was administered to a compound administration group by feeding a mixture with feed containing 0.03% of the compound. A separate group in which the mice were fed only with feed was a control group.
The experiment period (drug administration period) was three days. The grouping day was the 0th day. On the 3rd day, body weight was measured and blood was collected from the tail vein to measure the blood glucose level.
The blood glucose lowering efficacy was determined by the following formula.
Blood glucose lowering efficacy=[(Control group blood glucose level−Compound administration group blood glucose level)/Control group blood glucose level]×100
Consider `COc1cc(O)c2c(c1C(=O)NCc1ccc(OCc3ccccc3F)c3ccccc13)OC1=CC(O)=C(C(C)=O)C(=O)[C@]12C` [Example 144, (9aS)-8-Acetyl-N-({4-[(2-fluorobenzyl)oxy]-1-naphthyl}methyl)-1,7-dihydroxy-3-methoxy-9a-methyl-9-oxo-9,9a-dihydrodibenzo[b,d]furan-4-carboxamide], for which the “Blood glucose lowering efficacy (%)” value amounted to 41%.

Still in this experiment, the particulars now being: Mus musculus, po, 72 h, 15 to 20 weeks old, feed containing 0.03% of the compound, three days, blood glucose on the 3rd day vs control group, read-out: Blood glucose lowering efficacy (%).
Regarding `C=CCO/N=C(\C)C1=C(O)C=C2Oc3c(C(=O)NCc4c(C)cc(NS(=O)(=O)c5ccc(Cl)cc5Cl)cc4C)c(OC)cc(O)c3[C@]2(C)C1=O` [Example 162, (9aS)-8-[(1E)-N-(Allyloxy)ethaneimidoyl]-N-(4-{[(2,4-dichlorophenyl)sulfonyl]amino}-2,6-dimethylbenzyl)-1,7-dihydroxy-3-methoxy-9a-methyl-9-oxo-9,9a-dihydrodibenzo[b,d]furan-4-carboxamide], the inhibition in vivo at 0.03 % in feed is 43%.
Take `COc1cc(O)c2c(c1C(=O)NCc1c(C)ccc3c(F)cc(F)cc13)OC1=CC(O)=C(C(C)=O)C(=O)[C@]12C` [Example 176, (9aS)-8-Acetyl-N-[(5,7-difluoro-2-methyl-1-naphthyl)methyl]-1,7-dihydroxy-3-methoxy-9a-methyl-9-oxo-9,9a-dihydrodibenzo[b,d]furan-4-carboxamide]: the inhibition in vivo at 0.03 % in feed was 40%.
Turning to `COc1cc(O)c2c(c1C(=O)NCc1ccc(OCc3ccccc3)c3ccccc13)OC1=CC(O)=C(C(C)=O)C(=O)[C@]12C` [Example 104, (9aS)-8-Acetyl-N-{[4-(benzyloxy)-1-naphthyl]methyl}-1,7-dihydroxy-3-methoxy-9a-methyl-9-oxo-9,9a-dihydrodibenzo[b,d]furan-4-carboxamide], the inhibition in vivo at 0.03 % in feed was found to be 53%.
Still for that read-out and setting: for `COc1cc(O)c2c(c1C(=O)NCc1c(C)cc(C)c3ccccc13)OC1=CC(O)=C(C(C)=O)C(=O)[C@]12C` [Example 171, (9aS)-8-Acetyl-1,7-dihydroxy-3-methoxy-9a-methyl-N-[(2,4-dimethyl-1-naphthyl)methyl]-9-oxo-9,9a-dihydrodibenzo[b,d]furan-4-carboxamide] the value was 47%; for `CCc1cc(F)c2ccccc2c1CNC(=O)c1c(OC)cc(O)c2c1OC1=CC(O)=C(C(C)=O)C(=O)[C@]12C` [Example 187, (9aS)-8-Acetyl-N-[(2-ethyl-4-fluoro-1-naphthyl)methyl]-1,7-dihydroxy-3-methoxy-9a-methyl-9-oxo-9,9a-dihydrodibenzo[b,d]furan-4-carboxamide], 44%.
`COc1cc(O)c2c(c1C(=O)NCc1c(C)cc(F)c3ccccc13)OC1=CC(O)=C(C(C)=O)C(=O)[C@]12C` [Example 180, (9aS)-8-Acetyl-N-[(4-fluoro-2-methyl-1-naphthyl)methyl]-1,7-dihydroxy-3-methoxy-9a-methyl-9-oxo-9,9a-dihydrodibenzo[b,d]furan-4-carboxamide]: the inhibition in vivo at 0.03 % in feed was determined as 60%.
`COc1cc(O)c2c(c1C(=O)NCc1c(C)ccc3ccc(F)cc13)OC1=CC(O)=C(C(C)=O)C(=O)[C@]12C` [Example 182, (9aS)-8-Acetyl-N-[(7-fluoro-2-methyl-1-naphthyl)methyl]-1,7-dihydroxy-3-methoxy-9a-methyl-9-oxo-9,9a-dihydrodibenzo[b,d]furan-4-carboxamide]: the inhibition in vivo at 0.03 % in feed came to 50%.
Take `COc1cc(O)c2c(c1C(=O)NCc1ccc(OCc3ccccc3Cl)c3ccccc13)OC1=CC(O)=C(C(C)=O)C(=O)[C@]12C` [Example 147, (9aS)-8-Acetyl-N-({4-[(2-chlorobenzyl)oxy]-1-naphthyl}methyl)-1,7-dihydroxy-3-methoxy-9a-methyl-9-oxo-9,9a-dihydrodibenzo[b,d]furan-4-carboxamide]: the inhibition in vivo at 0.03 % in feed turned out to be 62%.
Same read-out and setting: for `CCc1ccc2c(F)cc(C)cc2c1CNC(=O)c1c(OC)cc(O)c2c1OC1=CC(O)=C(C(C)=O)C(=O)[C@]12C` [Example 195, (9aS)-8-Acetyl-N-[(2-ethyl-5-fluoro-7-methyl-1-naphthyl)methyl]-1,7-dihydroxy-3-methoxy-9a-methyl-9-oxo-9,9a-dihydrodibenzo[b,d]furan-4-carboxamide] the value was 36%; for `COc1cc(O)c2c(c1C(=O)NCc1c(C)cc(NS(=O)(=O)c3ccc(Cl)cc3Cl)cc1C)OC1=CC(O)=C(C(C)=O)C(=O)[C@]12C` [Example 111, (9aS)-8-Acetyl-N-(4-{[(2,4-dichlorophenyl)sulfonyl]amino}-2,6-dimethylbenzyl)-1,7-dihydroxy-3-methoxy-9a-methyl-9-oxo-9,9a-dihydrodibenzo[b,d]furan-4-carboxamide], 31%.
Same read-out and setting: then `COc1cc(O)c2c(c1C(=O)NCc1c(C)ccc3c(F)c(F)c(F)cc13)OC1=CC(O)=C(C(C)=O)C(=O)[C@]12C` [Example 190, (9aS)-8-Acetyl-1,7-dihydroxy-3-methoxy-9a-methyl-9-oxo-N-[(5,6,7-trifluoro-2-methyl-1-naphthyl)methyl]-9,9a-dihydrodibenzo[b,d]furan-4-carboxamide], with 58%.
Turning to `CCc1ccc2ccc(F)cc2c1CNC(=O)c1c(OC)cc(O)c2c1OC1=CC(O)=C(C(C)=O)C(=O)[C@]12C` [Example 184, (9aS)-8-Acetyl-N-[(2-ethyl-7-fluoro-1-naphthyl)methyl]-1,7-dihydroxy-3-methoxy-9a-methyl-9-oxo-9,9a-dihydrodibenzo[b,d]furan-4-carboxamide], the inhibition in vivo at 0.03 % in feed was determined as 37%.
For `COc1cc(O)c2c(c1C(=O)NCc1c(C)c(C)c(C)c3ccccc13)OC1=CC(O)=C(C(C)=O)C(=O)[C@]12C` [Example 69, (9aS)-8-Acetyl-1,7-dihydroxy-3-methoxy-9a-methyl-N-[(2,3,4-trimethyl-1-naphthyl)methyl]-9-oxo-9,9a-dihydrodibenzo[b,d]furan-4-carboxamide], the inhibition in vivo at 0.03 % in feed turned out to be 47%.
Same read-out and setting: then `COc1cc(O)c2c(c1C(=O)NCc1c(C)cc(Cl)c3ccccc13)OC1=CC(O)=C(C(C)=O)C(=O)[C@]12C` [Example 178, (9aS)-8-Acetyl-N-[(4-chloro-2-methyl-1-naphthyl)methyl]-1,7-dihydroxy-3-methoxy-9a-methyl-9-oxo-9,9a-dihydrodibenzo[b,d]furan-4-carboxamide], with 37%; and `CCc1ccc2ccc(F)c(F)c2c1CNC(=O)c1c(OC)cc(O)c2c1OC1=CC(O)=C(C(C)=O)C(=O)[C@]12C` [Example 193, (9aS)-8-Acetyl-N-[(2-ethyl-7,8-difluoro-1-naphthyl)methyl]-1,7-dihydroxy-3-methoxy-9a-methyl-9-oxo-9,9a-dihydrodibenzo[b,d]furan-4-carboxamide], with 50%.
Still for that read-out and setting: then `CCc1ccc2ccc(Cl)cc2c1CNC(=O)c1c(OC)cc(O)c2c1OC1=CC(O)=C(C(C)=O)C(=O)[C@]12C` [Example 186, (9aS)-8-Acetyl-N-[(7-chloro-2-ethyl-1-naphthyl)methyl]-1,7-dihydroxy-3-methoxy-9a-methyl-9-oxo-9,9a-dihydrodibenzo[b,d]furan-4-carboxamide], with 53%; and `CCc1ccc2ccccc2c1CNC(=O)c1c(OC)cc(O)c2c1OC1=CC(O)=C(C(C)=O)C(=O)[C@]12C` [Example 56, (9aS)-8-Acetyl-N-[(2-ethyl-1-naphthyl)methyl]-1,7-dihydroxy-3-methoxy-9a-methyl-9-oxo-9,9a-dihydrodibenzo[b,d]furan-4-carboxamide], with 24%; and `COc1cc(O)c2c(c1C(=O)NCc1c(C)c(C)cc3ccccc13)OC1=CC(O)=C(C(C)=O)C(=O)[C@]12C` [Example 54, (9aS)-8-Acetyl-1,7-dihydroxy-3-methoxy-9a-methyl-N-[(2,3-dimethyl-1-naphthyl)methyl]-9-oxo-9,9a-dihydrodibenzo[b,d]furan-4-carboxamide], with 34%.
Same read-out and setting: then `CC#CCOc1cc(C)c(CNC(=O)c2c(OC)cc(O)c3c2OC2=CC(O)=C(C(C)=O)C(=O)[C@]23C)c(C)c1C` [Example 102, (9aS)-8-Acetyl-N-[4-(2-butynyloxy)-2,3,6-trimethylbenzyl]-1,7-dihydroxy-3-methoxy-9a-methyl-9-oxo-9,9a-dihydrodibenzo[b,d]furan-4-carboxamide], with 63%.
Take `CCC#CCOc1cc(C)c(CNC(=O)c2c(OC)cc(O)c3c2OC2=CC(O)=C(C(C)=O)C(=O)[C@]23C)c(C)c1C` [Example 103, (9aS)-8-Acetyl-1,7-dihydroxy-3-methoxy-9a-methyl-9-oxo-N-[2,3,6-trimethyl-4-(2-pentynyloxy)benzyl]-9,9a-dihydrodibenzo[b,d]furan-4-carboxamide]: the inhibition in vivo at 0.03 % in feed stood at 62%.
With `COc1cc(O)c2c(c1C(=O)NCc1ccc(OCc3ccc(F)cc3F)c3ccccc13)OC1=CC(O)=C(C(C)=O)C(=O)[C@]12C` [Example 146, (9aS)-8-Acetyl-N-({4-[(2,4-difluorobenzyl)oxy]-1-naphthyl}methyl)-1,7-dihydroxy-3-methoxy-9a-methyl-9-oxo-9,9a-dihydrodibenzo[b,d]furan-4-carboxamide], the inhibition in vivo at 0.03 % in feed amounted to 49%.
